Test results taken from patent publication US10077455B2, “3HP tolerance” (TECHNICAL UNIVERSITY OF DENMARK, priority 2013, dated 2018).

What was measured:
[1] = test system: S. cerevisiae CEN.PK 113-7D strain (WT); experiment: Toxicity of 3HP on growth of S. cerevisiae in Delft minimal medium; format: cell-based, Saccharomyces cerevisiae; details: Delft buffered medium pH 3.5, 30° C., 42 hours
Procedure: The toxicity of 3HP on growth of S. cerevisiae CEN.PK 113-7D strain (WT) was determined by evaluating the ability of the WT strain to grow on a chemically defined minimal medium (Delft) containing varying concentrations of 3HP (0-100 g/L). The composition of Delft medium was as follows: 20.0 g/L glucose, 5.0 g/L (NH4)2SO4, 3.0 g/L KH2PO4, 0.5 g/L MgSO4.7H2O, 1.0 mL/L trace metal solution, 0.05 g/L antifoam A (10794, Sigma-Aldrich), and 1.0 mL/L vitamin solution. The trace element solution included 15 g/L EDTA, 0.45 g/L CaCl2.2H2O, 0.45 g/L ZnSO4.7H2O, 0.3 g/L FeSO4.7H2O, 100 mg/L […], 1 g/L MnCl2.2H2O, 0.3 g/L CoCl2.6H2O, 0.3 g/L CuSO4.5H2O, 0.4 g/L NaMoO4.2H2O. The pH of the trace metal solution was adjusted to 4.0 with 2 M NaOH and heat sterilized. […]
A single colony from YPD plate (10 g/L yeast extract, 20 g/L peptone, 20 g/L glucose and 20 g/L agar) was inoculated in a shake flask with 20 mL YPD broth and grown at 30° C., with shaking at 200 rpm, overnight. The absorbance (OD600) of the overnight culture was measured at 600 nm wave length using NanoPhotometer™ UV/Vis (Implen) and the culture was diluted with YPD medium to obtain inoculum with the OD600 around 0.8. […] Experiments were done in duplicates, and the specific growth rate (h^−1) was calculated at various concentrations of 3HP.

[2] = test system: S. cerevisiae strains ST609, ST610, ST611; experiment: 3HP tolerance of SFA1 allele replacement strains; format: cell-based, Saccharomyces cerevisiae; details: Delft buffered pH 3.5
Procedure: For testing 3HP tolerance phenotype, two single colonies from each strain: ST609 (SFA1-wt), ST610 (SFA1^G827C) and ST611 (SFA1^G849A) were investigated for the ability to grow on media containing 3HP. […] The plate was incubated at 30° C. with 250 rpm agitation at 5 cm orbit cast overnight. […] Experiments were done in duplicates.

K. marxianus = experiment: Effect of GSH addition on growth of yeast strains with 50 g/L 3HP; format: cell-based, Kluyveromyces marxianus
Procedure: (§2) The yeast strains were grown in 3 mL Delft medium (pH 6.0) at 250 rpm, 25° C., overnight. Three μL of the overnight cultures were used to inoculate 100 μL Delft medium (pH 6.0) with or without 50 g/[MUT] in 96-well flat bottom plate. The 96-well plate was incubated with shaking in the SynergyTM MX microplate reader (BioTek) at 25° C. and the absorbance was measured at 600 nm wavelength every 15 min for 72 hours. Experiments were done in triplicates, and the specific growth rate (h^-1) was calculated. The effect of GSH addition was performed by adding 5 mM GSH into the cultivation medium containing 50 g/[MUT]. The growth of each strain was determined as mentioned above.

Y. lipolytica = experiment: as above; format: cell-based, Yarrowia lipolytica
Procedure: as §2

C. jadinii = experiment: as above; format: cell-based, Cyberlindnera jadinii
Procedure: as §2

S. pombe = experiment: as above; format: cell-based, Schizosaccharomyces pombe
Procedure: as §2

T. delbrueckii = experiment: as above; format: cell-based, Torulaspora delbrueckii
Procedure: as §2

Rhodotorula minuta = experiment: as above; format: cell-based
Procedure: as §2

[3] = test system: E. coli strains W3110, CROOKS, W, BL21 (DE3), MG1655; experiment: Effect of GSH addition on growth of E. coli strains in M9 with 20 g/L 3HP; format: cell-based; details: for effect of GSH addition on viability: M9 minimal medium with 20 g/L 3HP, pH 7.0, 37° C.
Procedure: For E. coli, the effect of GSH addition on the growth of E. coli in the presence of 20 g/L 3HP was investigated. Five platform E. coli wild-type strains e.g. W3110, CROOKS, W, BL21 (DE3) and MG1655 were selected for 3HP tolerance experiment. Single colony from each strain was inoculated into 3 mL M9 medium and incubated at 250 rpm, 37° C., overnight. Two μL of the overnight cultures were used to inoculate 150 μL M9 medium, M9 with 20 g/L 3HP, and M9 with 20 g/L 3HP and 5 mM GSH in 96-well flat bottom plate. The pH of all E. coli tested media was at pH 7.0.
The composition of M9 medium was as follows: 2.0 g/L glucose, 6.8 g/L Na HPO4, 3.0 g/L KH2PO4, 0.5 g/L NaCl, 1.0 g/L NH4Cl, 0.24 g/L MgSO4, 0.011 g/L CaCl2, 0.5 mL/L trace elements solution, and 1.0 mL/L Wolfe's Vitamin solution. The trace elements solution included 1.0 g/L FeCl3.6H2O, 0.18 g/L ZnSo4.7H2O, 0.12 g/L CuCl2.2H2O, 0.12 g/L MnSO4.H2O, and 0.18 g/L CoCl2.6H2O. The Wolfe's vitamin solution included 10 mg/L pyridoxine hydrochloride, 5.0 mg/L thiamine HCl, 5.0 mg/L riboflavin, 5.0 mg/L nicotinic acid, 5.0 mg/L calcium-(+) phantothenate, 5.0 mg/L para-amino benzoic acid, 5.0 mg/L thiotic acid, 2.0 mg/L d-biotin, 2.0 mg/L folic acid, and 0.1 mg/L vitamin B12. The trace elements and vitamin solutions were sterile-filtered and the solution was stored at 4° C. The M9 salt solution was prepared as a 10× concentrate solution and sterilized by autoclaving. 20% Glucose solution, 1M MgSO4, and 1M CaCl2 stock solutions were autoclaved separately.

[4] = test system: S. cerevisiae WT, SFA1-alleles and sfa1Δ strains
Procedure: The role of GSH in 3HP detoxification was investigated. The WT, SFA1-allles, and sfa1Δ strains were grown in the minimal medium with or without 50 g/L 3HP and supplemented with various concentration of external GSH (0-30 mM) and tested for 3HP tolerance.
For testing 3HP tolerance phenotype, the pre-cultures were prepared by inoculation of a single colony in 1 mL Delft buffered (pH 3.5) media containing 10 g/L 3HP. The cultures were incubated at 30° C. with 250 rpm overnight. Five μL of the overnight cultures were used to inoculate 100 μL Delft buffered (pH 3.5) with or without 50 g/L 3HP and various concentration of GSH (0, 1, 2.5, 5, 10, and 20 mM) in 96-well flat bottom plate. The 96-well plate was incubated at 30° C. with shaking in the Synergy™ MX microplate reader (BioTek) and the absorbance was measured at 600 nm wavelength every 15 min for 42 hours. Experiments were done in triplicates.

K. lactis = details: 5 mM GSH, 50 g/L 3HP, Delft medium pH 6.0, 25° C.
Procedure: (§1) The yeast strains were grown in 3 mL Delft medium (pH 6.0) at 250 rpm, 25° C., overnight. Three μL of the overnight cultures were used to inoculate 100 μL Delft medium (pH 6.0) with or without 50 g/[…] in 96-well flat bottom plate. The 96-well plate was incubated with shaking in the SynergyTM MX microplate reader (BioTek) at 25° C. and the absorbance was measured at 600 nm wavelength every 15 min for 72 hours. Experiments were done in triplicates, and the specific growth rate (h^-1) was calculated. The effect of GSH addition was performed by adding 5 mM GSH into the cultivation medium containing 50 g/[…]. The growth of each strain was determined as mentioned above.

S. cerevisiae = details: 5 mM GSH, 50 g/L 3HP, Delft medium pH 6.0, 25° C.
Procedure: as §1

S. kluyveri = details: 5 mM GSH, 50 g/L 3HP, Delft medium pH 6.0, 25° C.
Procedure: as §1

haploid wild-type cells = details: cited from earlier work
[5] = 5 mM GSH, 50 g/L 3HP, Delft medium pH 6.0

In the case of `O=C(O)CCO` [3HP, 3-hydroxypropionic acid], the “concentration of 3-HP at which the wild type yeast is unable to grow at all” value [1] was 75 g/L, the “concentration of 3-HP producing a substantial level of inhibition of growth” value [1] was “above 10 g/L” and the “3HP concentration in minimum media at which the strain could not grow” value ([2]; ST609 (SFA1-wt allele without over expression)) was “above 40 g/L”. The “3HP concentration in minimum media at which the strain could grow” value ([2]; ST610 (SFA1^G827C)) was “above 40 g/L”, the “3HP concentration in minimum media at which the strain could grow” value ([2]; ST611 (SFA1^G849A)) was “above 40 g/L” and the “3HP concentration tolerated (with decreased specific growth rate)” value (K. marxianus; Delft medium pH 6.0, 25° C.) was “more than 50 g/L”. The “3HP concentration tolerated (with decreased specific growth rate)” value (Y. lipolytica; Delft medium pH 6.0, 25° C.) was “more than 50 g/L”, the “3HP concentration tolerated (with decreased specific growth rate)” value (C. jadinii; Delft medium pH 6.0, 25° C.) was “more than 50 g/L” and the “3HP concentration tolerated (with decreased specific growth rate)” value (S. pombe; Delft medium pH 6.0, 25° C.) was “more than 50 g/L”. The “3HP concentration tolerated (with decreased specific growth rate)” value (T. delbrueckii; Delft medium pH 6.0, 25° C.) was “more than 50 g/L”, the “3HP concentration tolerated (with decreased specific growth rate)” value (Rhodotorula minuta; Delft medium pH 6.0, 25° C.) was “more than 50 g/L” and the “decrease in the specific growth rate compared to the cells grown in M9 medium” value ([3]; strain MG1655, M9 medium containing 20 g/L 3HP) was 2.2 fold.

In the case of `N[C@@H](CCC(=O)N[C@@H](CS)C(=O)NCC(=O)O)C(=O)O` [GSH, glutathione], the “GSH concentration that restored growth in the presence of 50 g/L 3HP” value ([4]; WT S. cerevisiae, 50 g/L 3HP, Delft buffered pH 3.5) was no less than 2.5 mM, the “effect of GSH on growth” value ([4]; all strains, minimal medium without 50 g/L 3HP) was “no significant effect” and the “effect of GSH addition on growth” value ([4]; sfa1Δ strain, 50 g/L 3HP) was “could not be restored”. For the same molecule, the “effect of GSH addition on growth rate” value ([4]; strain carrying the SFA1 alleles, 50 g/L 3HP) was “improved the growth rate”, the “effect of GSH addition on viability” value (K. lactis) was “restored the viability” and the “effect of GSH addition on viability” value (S. cerevisiae) was “restored the viability”. The “effect of GSH addition on viability” value (S. kluyveri) was “restored the viability”, the “effect of GSH addition on specific growth rate” value (“effect … on specific growth rate” for short) (K. marxianus; [5]) was “improved” and the “effect … on specific growth rate” value (Y. lipolytica; [5]) was “improved”. For the same molecule, the “effect … on specific growth rate” value (C. jadinii; [5]) was “improved”, the “effect … on specific growth rate” value (S. pombe; [5]) was “improved” and the “effect … on specific growth rate” value (T. delbrueckii; [5]) was “improved”. The “effect … on specific growth rate” value (Rhodotorula minuta; [5]) was “improved”, the “effect of GSH addition on viability” value ([3]; strain BL21, 5 mM GSH) was “restored the viability” and the “effect of GSH addition on viability” value ([3]; strain CROOKS, 5 mM GSH) was “restored the viability”. For the same molecule, the “effect … on specific growth rate” value ([3]; strain MG1655, 5 mM GSH, medium containing 20 g/L 3HP) was “improved”, the “effect of GSH addition on viability” value ([3]; strain W3110, 5 mM GSH) was “restored the viability” and the “effect of GSH addition on viability” value ([3]; strain W, 5 mM GSH) was “restored the viability”.

For `C=O` [formaldehyde], the “concentration that is cytostatic or cytotoxic” value (haploid wild-type cells) is listed as no less than 1000 µM.
